Target: fully phosphorylated, active Mouse ERK2 protein (Mus musculus (Mouse), UniProt P63085)
Assay: Active ERK2 (aERK) IMAP assay
Type: biochemical
Conditions: IMAP fluorescence polarization; 30 μM ATP; 30 minute pre-incubation
Method: 14 μl of kinase buffer (10 mM Tris.HCl pH 7.2, 10 mM MgCl2, 0.01% Tween-20, 1 mM DTT) containing 0.4 ng unphosphorylated Mouse ERK2 protein was added to each well of a black 384-well assay plate. […] DMSO concentration during initial incubation is 6.7%. […] DMSO concentration during ERK activation was 4%. After one hour, reactions were terminated by addition of 60 μl IMAP detections beads in binding buffer (Molecular Devices). Binding was allowed to equilibrate for 30 minutes before reading the plate on an LJL Analyst Fluorescence Polarization plate reader.
Active ERK2 (aERK) Assay:
Activated ERK2 activity was also determined in the IMAP assay format using the procedure outlined above. […] Reactions proceeded for 30 minutes before termination by addition of 60 μl IMAP detection beads in binding buffer. Plates were read as above after 30 minute binding equilibration.

Sequence of fully phosphorylated, active Mouse ERK2 protein (P63085 whole entry): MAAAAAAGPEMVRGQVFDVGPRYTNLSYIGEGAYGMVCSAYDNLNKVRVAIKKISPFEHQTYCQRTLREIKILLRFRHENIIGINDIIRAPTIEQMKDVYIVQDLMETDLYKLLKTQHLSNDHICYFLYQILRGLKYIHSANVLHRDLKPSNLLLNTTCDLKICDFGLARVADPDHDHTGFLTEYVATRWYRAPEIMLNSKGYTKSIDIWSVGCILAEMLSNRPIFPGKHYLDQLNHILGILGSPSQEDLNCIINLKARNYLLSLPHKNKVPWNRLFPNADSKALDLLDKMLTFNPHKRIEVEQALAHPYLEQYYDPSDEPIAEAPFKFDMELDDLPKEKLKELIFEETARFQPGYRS

Compound	IC50
Cc1cc(-c2n[nH]c3ccc(C(=O)NC4CCCC(Oc5ccccc5Cl)C4)cc23)ccn1 (single isomer, unassigned) [compound 30, N-[3-(2-chlorophenoxy)cyclohexyl]-3-(2-methyl-4-pyridinyl)-1H-indazole-5-carboxamide]	38.6 nM
COc1cccc(F)c1C[C@@]1(O)CCC[C@@H](NC(=O)c2ccc3[nH]nc(-c4ccc(OC(C)C)cc4)c3c2)C1 [compound 26, N-[3(S)-[(2-fluoro-6-methoxyphenyl)methyl]-3-hydroxy-1(R)-cyclohexyl]-3-[4-(1-methylethoxy)phenyl]-1H-indazole-5-carboxamide]	79 nM
Cc1nc2ccc(-c3n[nH]c4ccc(C(=O)NC5CCCC(Cn6cc(C#N)c7ccccc76)C5)cc34)cc2s1 (stereo not shown) [compound 112, N-[3-[(3-cyano-1H-indol-1-yl)methyl]cyclohexyl]-3-(2-methyl-6-benzothiazolyl)-1H-indazole-5-carboxamide]	1000 nM
Cc1cc(-c2n[nH]c3ccc(C(=O)NN4CCC(CO)(Cc5ccccc5F)C4)cc23)ccn1 (stereo not shown) [compound 150, N-[3-[(2-fluorophenyl)methyl]-3-(hydroxymethyl)-1-pyrrolidinyl]-3-(2-methyl-4-pyridinyl)-1H-indazole-5-carboxamide]	32.2 nM
COc1cccc(F)c1C[C@@]1(O)CCC[C@@H](NC(=O)c2ccc3[nH]nc(-c4ccnc(C)c4)c3c2)C1 [compound 22, N-[3(S)-[(2-fluoro-6-methoxyphenyl)methyl]-3-hydroxy-1(R)-cyclohexyl]-3-(2-methyl-4-pyridinyl)-1H-indazole-5-carboxamide]	2 nM
Cc1cc(-c2n[nH]c3ccc(C(=O)NC4CCCC(O)(Cc5c(F)cccc5F)C4)cc23)ccn1 (single isomer, unassigned) [compound 7, N-[3-[(2,6-difluorophenyl)methyl]-3-hydroxycyclohexyl]-3-(2-methyl-4-pyridinyl)-1H-indazole-5-carboxamide]	15.2 nM
Cc1cc(-c2n[nH]c3ccc(C(=O)NC4CCC(CO)(Cc5ccccc5F)C4)cc23)ccn1 (stereo not shown) [compound 139, N-[3-[(2-fluorophenyl)methyl]-3-(hydroxymethyl)cyclopentyl]-3-(2-methyl-4-pyridinyl)-1H-indazole-5-carboxamide]	64.4 nM
COc1cccc(F)c1C[C@@]1(O)CCC[C@@H](NC(=O)c2ccc3[nH]nc(-c4ccc5nccn5c4)c3c2)C1 [compound 23, N-[3(S)-[(2-fluoro-6-methoxyphenyl)methyl]-3-hydroxy-1(R)-cyclohexyl]-3-imidazo[1,2-a]pyridin-6-yl-1H-indazole-5-carboxamide]	2.2 nM
Cc1cc(-c2n[nH]c3ccc(C(=O)NC4CCCC(O)(C(O)c5ccccc5)C4)cc23)ccn1 (stereo not shown) [compound 52, N-[3-hydroxy-3-(hydroxyphenylmethyl)cyclohex-yl]-3-(2-methyl-4-pyridinyl)-1H-indazole-5-carboxamide (diasterimer 4)]	294 nM
Cc1cc(-c2n[nH]c3ccc(C(=O)N[C@@H]4CCC[C@@](O)(Cn5cc6ccccc6n5)C4)cc23)ccn1 (relative stereo) [compound 94, N-[cis-3-hydroxy-3-(2H-indazol-2-ylmethyl)cyclohexyl]-3-(2-methyl-4-pyridinyl)-1H-indazole-5-carboxamide]	35 nM
Cc1cc(-c2n[nH]c3ccc(C(=O)NN4CCCC(Oc5ccccc5Cl)C4)cc23)ccn1 (stereo not shown) [compound 141, N-[3-(2-chlorophenoxy)-1-piperidinyl]-3-(2-methyl-4-pyridinyl)-1H-indazole-5-carboxamide]	84.4 nM
Cc1cc(-c2n[nH]c3ccc(C(=O)NC4CCCC(Cc5ccccc5F)(C(=O)O)C4)cc23)ccn1 (mixture of isomers) [compound 131, cis/trans-1-[(2-fluorophenyl)methyl]-3-[[[3-(2-methyl-4-pyridinyl)-1H-indazol-5-yl]carbonyl]amino]cyclo-hexanecarboxylic acid]	1000 nM
Cc1cc(-c2n[nH]c3ccc(C(=O)N[C@@H]4CCC[C@](O)(Cn5cncn5)C4)cc23)ccn1 (relative stereo) [compound 63, N-[trans-3-hydroxy-3-(1H-1,2,4-triazol-1-ylmethyl)cyclohexyl]-3-(2-methyl-4-pyridinyl)-1H-indazole-5-carboxamide]	197 nM
O=C(N[C@@H]1CCC[C@](O)(Cn2ccccc2=O)C1)c1ccc2[nH]nc(-c3ccc4nccn4c3)c2c1 (relative stereo) [compound 85, N-[trans-3-hydroxy-3-[(2-oxo-1(2h)-pyridinyl)methyl]cyclohexyl]-3-imidazo[1,2-a]pyridiN-6-yl-1H-indazole-5-carboxamide]	1000 nM
Cc1cc(-c2n[nH]c3ccc(C(=O)NC4CCCC(O)(Cc5ccccc5F)C4)cc23)ccn1 (single isomer, unassigned) [compound 2, N-[3-[(2-fluorophenyl)methyl]-3-hydroxycyclo-hexyl]-3-(2-methyl-4-pyridinyl)-1H-indazole-5-carboxamide]	20.8 nM
CC(C)Oc1ccc(-c2n[nH]c3ccc(C(=O)NN4CCCC4CCc4ccccc4)cc23)cn1 (stereo not shown) [compound 144, 3-[6-(1-methylethoxy)-3-pyridinyl]-N-[2-(2-phenylethyl)-1-pyrrolidinyl]-1H-indazole-5-carboxamide]	497 nM
Cc1cc(-c2n[nH]c3ccc(C(=O)N[C@H]4CCC[C@@](O)(Cn5cc6ccc(C(F)(F)F)cc6n5)C4)cc23)ccn1 (relative stereo) [compound 105, N-[trans-3-hydroxy-3-[[6-(trifluoromethyl)-2H-indazol-2-yl]methyl]cyclohexyl]-3-(2-methyl-4-pyridinyl)-1H-indazole-5-carboxamide]	1000 nM
Cc1cc(-c2n[nH]c3ccc(C(=O)N[C@@H]4CCC[C@](O)(Cn5cnc6ncccc65)C4)cc23)ccn1 (relative stereo) [compound 71, N-[trans-3-hydroxy-3-(1H-imidazo[4,5-b]pyridin-1-ylmethyl)cyclohexyl]-3-(2-methyl-4-pyridinyl)-1H-indazole-5-carboxamide]	464 nM
Cc1cc(-c2n[nH]c3ccc(C(=O)NN4CCCC(Oc5ccccc5F)C4)cc23)ccn1 (stereo not shown) [compound 143, N-[3-(2-fluorophenoxy)-1-piperidinyl]-3-(2-methyl-4-pyridinyl)-1H-indazole-5-carboxamide]	26.8 nM
Cc1cc(-c2n[nH]c3ccc(C(=O)N[C@@H]4CCC[C@](O)(Cn5c(=O)ccc6ccccc65)C4)cc23)ccn1 (relative stereo) [compound 89, N-[trans-3-hydroxy-3-[(2-oxo-1(2h)-quinolinyl)methyl]cyclohex-yl]-3-(2-methyl-4-pyridinyl)-1H-indazole-5-carboxamide]	714 nM
Cc1cc(-c2n[nH]c3ccc(C(=O)N[C@H]4CCC[C@@](O)(Cn5c(C)nc6ccccc65)C4)cc23)ccn1 [compound 69, N-[trans-3-hydroxy-3-[(2-methyl-1H-benzimidazol-1-yl)methyl]cyclohexyl]-3-(2-methyl-4-pyridinyl)-H-indazole-5-carboxamide]	53 nM
Cc1nc2ccc(-c3n[nH]c4ccc(C(=O)N[C@@H]5CCC[C@](O)(Cc6c(F)cccc6F)C5)cc34)cc2s1 [compound 14, N-[3(S)-[(2,6-difluorophenyl)methyl]-3-hydroxy-1(R)-cyclohexyl]-3-(2-methyl-6-benzothiazolyl)-1H-indazole-5-carboxamide]	15.4 nM
CC(C)Oc1ccc(-c2n[nH]c3ccc(C(=O)N[C@@H]4CCC[C@](O)(Cc5c(F)cccc5F)C4)cc23)cn1 [compound 18, N-[3(S)-[(2,6-difluorophenyl)methyl]-3-hydroxy-1(R)-cyclohexyl]-3-[6-(1-methylethoxy)-3-pyridinyl]-1H-indazole-5-carboxamide]	140 nM
Cc1cc(-c2n[nH]c3ccc(C(=O)NN4CCCC(CO)(Cc5ccccc5F)C4)cc23)ccn1 (stereo not shown) [compound 151, N-[3-[(2-fluorophenyl)methyl]-3-(hydroxymethyl)-1-piperidinyl]-3-(2-methyl-4-pyridinyl)-1H-indazole-5-carboxamide]	193 nM
Cc1cc(-c2n[nH]c3ccc(C(=O)N[C@H]4CCC[C@@](O)(Cn5cc6cc(F)ccc6n5)C4)cc23)ccn1 (relative stereo) [compound 99, N-[trans-3-[(5-fluoro-2H-indazol-2-yl)methyl]-3-hydroxycyclohexyl]-3-(2-methyl-4-pyridinyl)-1H-indazole-5-carboxamide]	1000 nM
Cc1cc(-c2n[nH]c3ccc(C(=O)N[C@@H]4CCC[C@](O)(Cn5ncc6ccncc65)C4)cc23)ccn1 (relative stereo) [compound 74, N-[trans-3-hydroxy-3-(1H-pyrazolo[3,4-c]pyridin-1-ylmethyl)cyclohexyl]-3-(2-methyl-4-pyridinyl)-1H-indazole-5-carboxamide]	792 nM
Cc1cc(-c2n[nH]c3ccc(C(=O)NC4CCCC(F)(Cc5ccccc5F)C4)cc23)ccn1 (racemic) [compound 54, N-[3-fluoro-3-[(2-fluorophenyl)methyl]cyclohexyl]-3-(2-methyl-4-pyridinyl)-1H-indazole-5-carboxamide (racemic)]	1000 nM
Cc1cc(-c2n[nH]c3ccc(C(=O)N[C@H]4CCC[C@@](O)(Cn5ncc6c(F)cccc65)C4)cc23)ccn1 (relative stereo) [compound 96, N-[trans-3-[(4-fluoro-1H-indazol-1-yl)methyl]-3-hydroxycyclohexyl]-3-(2-methyl-4-pyridinyl)-1H-indazole-5-carboxamide]	577 nM

Reference: patent US9351965B2, “Indazole derivatives useful as ERK inhibitors” (Merck Sharp & Dohme Corp., priority 2010, dated 2016)
